# Source: BindingDB's records for doi:10.1021/jm00003a002 (University of Minnesota, 1995)
# What was measured:
# [1] = The opioid receptor affinity(Ki) was evaluated by competition with [3H]-DPDPE (delta 1) on guinea pig brain membranes
# [2] = The opioid receptor affinity(Ki) was evaluated by competition with [3H]DSLET (delta 2) on guinea pig brain membranes
Compound,Ki [1] [nM],Ki [2] [nM]
"O=C(O)C[C@@H](NC(=O)c1cccc2c3c([nH]c12)[C@@H]1Oc2c(O)ccc4c2C12CCN(CC1CC1)C(C4)[C@]2(O)C3)C(=O)O (stereo partly drawn) [2-[22-cyclopropylmethyl-2,16-dihydroxy-(2S,13R)-14-oxa-11,22-diazaheptacyclo[13.9.1.01,13.02,21.04,12.05,10.019,25]pentacosa-4(12),5(10),6,8,15(25),16,18-heptaen-9-ylcarboxamido]-(2R)-butanedioic acid]",0.14,0.41
"N=C(N)NCCC[C@@H](NC(=O)c1cccc2c3c([nH]c12)[C@@H]1Oc2c(O)ccc4c2C12CCN(CC1CC1)C(C4)[C@]2(O)C3)C(=O)O (stereo partly drawn) [5-amino(imino)methylamino-2-[22-cyclopropylmethyl-2,16-dihydroxy-(2S,13R)-14-oxa-11,22-diazaheptacyclo[13.9.1.01,13.02,21.04,12.05,10.019,25]pentacosa-4(12),5(10),6,8,15(25),16,18-heptaen-9-ylcarboxamido]-(2R)-pentanoic acid]",0.16,0.083
"NCCC[C@@H](NC(=O)c1cccc2c3c([nH]c12)[C@@H]1Oc2c(O)ccc4c2C12CCN(CC1CC1)C(C4)[C@]2(O)C3)C(=O)O (stereo partly drawn) [5-amino-2-[22-cyclopropylmethyl-2,16-dihydroxy-(2S,13R)-14-oxa-11,22-diazaheptacyclo[13.9.1.01,13.02,21.04,12.05,10.019,25]pentacosa-4(12),5(10),6,8,15(25),16,18-heptaen-9-ylcarboxamido]-(2R)-pentanoic acid]",0.18,0.015
"NCCCC[C@@H](NC(=O)c1cccc2c3c([nH]c12)[C@@H]1Oc2c(O)ccc4c2C12CCN(CC1CC1)C(C4)[C@]2(O)C3)C(=O)O (stereo partly drawn) [6-amino-2-[22-cyclopropylmethyl-2,16-dihydroxy-(2S,13R)-14-oxa-11,22-diazaheptacyclo[13.9.1.01,13.02,21.04,12.05,10.019,25]pentacosa-4(12),5(10),6,8,15(25),16,18-heptaen-9-ylcarboxamido]-(2R)-hexanoic acid]",0.3,0.75
"O=C(O)c1cccc2c3c([nH]c12)[C@@H]1Oc2c(O)ccc4c2C12CCN(CC1CC1)C(C4)[C@]2(O)C3 (stereo partly drawn) [22-cyclopropylmethyl-2,16-dihydroxy-(2S,13R)-14-oxa-11,22-diazaheptacyclo[13.9.1.01,13.02,21.04,12.05,10.019,25]pentacosa-4(12),5(10),6,8,15(25),16,18-heptaene-9-carboxylic acid]",0.013,0.016
"O=C(O)CNC(=O)c1cccc2c3c([nH]c12)[C@@H]1Oc2c(O)ccc4c2C12CCN(CC1CC1)C(C4)[C@]2(O)C3 (stereo partly drawn) [32+/-82-[22-cyclopropylmethyl-2,16-dihydroxy-(2S,13R)-14-oxa-11,22-diazaheptacyclo[13.9.1.01,13.02,21.04,12.05,10.019,25]pentacosa-4(12),5(10),6,8,15(25),16,18-heptaen-9-ylcarboxamido]acetic acid]",0.005,–
